From patent EP4582426A1, “PAN-KRAS INHIBITOR COMPOUND” (Adlai Nortye Biopharma Co., Ltd., priority 2022, dated 2024) come the findings set out here.

One may read the IC50 as the concentration at which inhibition is half-maximal.

In test [1] the test system is AsPC-1 (G12D). Put plainly: In vitro cell proliferation inhibition test (CellTiter-Glo Luminescent Cell Viability Assay). Format: cell-based. Particulars: AsPC-1 cell line, Pancreas, KRAS (p.G12D), cells and compounds co-incubated 72 hours. The essentials: (§1)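 Cells were seeded at 1000-5000/well and cultured overnight, then exposed to compound (top final 10 µM, ten 3-fold dilutions) for 72 h at 37°C, 5% CO2. Viability was read by CellTiter-Glo luminescence; IC50 was obtained from four-parameter fits of normalized signal.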

Test [2] relates to SW480 (G12V). Described as above. The test is classed as cell-based. Particulars: SW480 cell line, Large intestine, Colon, KRAS (p.G12V), cells and compounds co-incubated 72 hours. The essentials:
as §1

With `CCn1c(-c2cc(C#CCN(C)C)cnc2C(C)OC)c2c3cc(ccc31)-c1csc(n1)CC(NC(=O)C1C(C)C1C)C(=O)N1CCCC(N1)C(=O)OCC(C)(C)C2` [Example 58, (1r,2R,3S)-N-((6^3S,4S,Z)-1^2-(5-(3-(dimethylamino)prop-1-yn-1-yl)-2-((S)-1-methoxyethyl)pyridin-3-yl)-1^1-ethyl-10,10-dimethyl-5,7-dioxo-6^1,6^2,6^3,6^4,6^5,6^6-hexahydro-1^1H-8-oxa-2(4,2)-thiazola-1(5,3)-indola-6(1,3)-pyridazinacycloundecaphane-4-yl)-2,3-dimethylcyclopropane-1-carboxamide], the IC50 in test [1] was 0.7 nM; in test [2], 0.24 nM.

`CCn1c(-c2cc(C#C[C@@H]3CCN3C)cnc2[C@H](C)OC)c2c3cc(ccc31)-c1csc(n1)C[C@H](NC(=O)[C@H]1C[C@@H]1C)C(=O)N1CCC[C@H](N1)C(=O)OCC(C)(C)C2` [Example 13, (1S,2S)-N-((63S,4S,Z)-11-ethyl-12-(2-((S)-1-methoxyethyl)-5-(((S)-1-methylazetidin-2-yl)ethynyl)pyridin-3-yl)-10,10-dimethyl-5,7-dioxo-61,62,63,64,65,66-hexahydro-11H-8-oxa-2(4,2)-Thiazola-1(5,3)-indola-6(1,3)-pyridazinacyclonecaphane-4-yl)-2-methylcyclopropane-1-carboxamide]: the IC50 in test [1] was found to be 5.7 nM; in test [1] (listed as 13') it was 2820 nM; in test [2], 7590 nM.

For the compound `CCn1c(-c2cc(C#CCCN3CCOCC3)cnc2[C@H](C)OC)c2c3cc(ccc31)-c1csc(n1)C[C@H](NC(=O)[C@H]1C[C@@H]1C)C(=O)N1CCC[C@H](N1)C(=O)OCC(C)(C)C2` (single isomer, unassigned) [Example 5], the 50% inhibitory concentration (IC50) in test [1] was 3220 nM; in test [2], 24.6 nM; in test [2] (listed as 5') it was 2020 nM.

As to `CCn1c(-c2cc(C#C[C@@H]3COCCN3C)cnc2[C@H](C)OC)c2c3cc(ccc31)-c1csc(n1)C[C@H](NC(=O)[C@H]1C[C@@H]1C)C(=O)N1CCC[C@H](N1)C(=O)OCC(C)(C)C2` [Example 28, (1S,2S)-N-((6^3S,4S,Z)-1^1-ethyl-1^2-(2-((S)-1-methoxyethyl)-5-(((R)-4-methylmorpholin-3-yl)ethynyl)pyridin-3-yl)-10,10-dimethyl-5,7-dioxo-6^1,6^2,6^3,6^4,6^5,6^6-hexahydro-1^1H-8-oxa-2(4,2)-thiazola-1(5,3)-indola-6(1,3)-pyridazinacycloundecaphane-4-yl)-2-methylcyclopropane-1-carboxamide], the half-maximal inhibitory concentration (IC50) in test [1] came out at 1.9 nM; in test [2] it was 2.5 nM.

As to `CCn1c(-c2cc(C#Cc3cncnc3N)cnc2C(C)OC)c2c3cc(ccc31)-c1csc(n1)CC(NC(=O)C1C(C)C1C)C(=O)N1CCCC(N1)C(=O)OCC(C)(C)C2` [Example 34, (1r,2R,3S)-N-((6^3S,4S,Z)-1^2-(5-((4-aminopyrimidin-5-yl)ethynyl)-2-((S)-1-methoxyethyl)pyridin-3-yl)-1^1-ethyl-10,10-dimethyl-5,7-dioxo-6^1,6^2,6^3,6^4,6^5,6^6-hexahydro-1^1H-8-oxa-2(4,2)-thiazola-1(5,3)-indola-6(1,3)-pyridazinacycloundecaphane-4-yl)-2,3-dimethylcyclopropane-1-carboxamide], the half-inhibitory concentration (IC50) in test [1] was found to be 1.3 nM; in test [2], 0.75 nM.

Consider `CCn1c(-c2cc(C#CCN3CCO[C@@H](C)C3)cnc2[C@H](C)OC)c2c3cc(ccc31)-c1csc(n1)C[C@H](NC(=O)[C@H]1C[C@@H]1C)C(=O)N1CCC[C@H](N1)C(=O)OCC(C)(C)C2` (single isomer, unassigned) [Example 4], for which the half-maximal inhibitory concentration (IC50) in test [1] was 4.9 nM; in test [1] (listed as 4') it was 523 nM; in test [2], 2.9 nM; in test [2] (listed as 4'), 813 nM.

On to `CCn1c(-c2cc(C#CCN3CCOCC3CO)cnc2C(C)OC)c2c3cc(ccc31)-c1csc(n1)CC(NC(=O)C1C(C)C1C)C(=O)N1CCCC(N1)C(=O)OCC(C)(C)C2` (single isomer, unassigned) [Example 25], for which the concentration for half-maximal inhibition (IC50) was determined as 0.35 nM in test [1] and 0.51 nM in test [2].
